The results in this text go back to patent US20140187556A1, “ANTI-AMYLOID COMPOUNDS AND METHODS” (Treventis Corporation, priority 2011, published 2014).

A value given as a limit tells only on which side of the number the result lay.

The first assay deals with T1, Aβ40 (Homo sapiens, UniProt P05067).
T1 construct: pre-treated Aβ40 (40 μM in 20 mM Tris, pH 7.4)
T1 sequence (P05067 672-711 limits assumed): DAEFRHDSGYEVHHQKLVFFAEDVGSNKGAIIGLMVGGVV
Description: Thioflavin T (ThT) Aβ aggregation assay. The format is biochemical. Conditions: 20 μM Aβ40, 37 degrees C. The protocol:
Aβ40 (1.0 mg) was pre-treated in a 1.5 mL microfuge tube with HFIP (1 mL) and sonicated for 20 min to disassemble any pre-formed Aβ aggregates. The HFIP was removed with a stream of argon and the Aβ dissolved in Tris base (5.8 mL, 20 mM, pH ˜10). The pH was adjusted to 7.4 with concentrated HCl (−10 μL) and the solution filtered using a syringe filter (0.2 μm) before being used.
The kinetic ThT assay for Aβ aggregation is similar to that of Chalifour et al (Chalifour et al, 2003, J. Biol. Chem. 278:34874-81). Briefly, pre-treated Aβ40 (40 μM in 20 mM Tris, pH 7.4), was diluted with an equal volume of 8 μM ThT in Tris (20 mM, pH 7.4, 300 mM NaCl). Aliquots of Aβ/ThT (200 μL) were added to wells of a black polystyrene 96-well plate, followed by 2 μL of a compound in DMSO (variable concentration), or DMSO alone (controls). Incubations were performed in triplicate and were taken to contain 20 μM Aβ, various concentration of compound in 20 mM Tris, pH 7.4, 150 mM NaCl, 1% DMSO. Plates were covered with clear polystyrene lids and incubated at 37 degrees C. in a Tecan Genios microplate reader. Fluorescence readings (λex=450 nm, λem=480 nm) were taken every 15 min., after first shaking at high intensity for 15 s and allowing to settle for 10 s before each reading. Active compounds attenuated the increase in fluorescence over time that occurred in controls.
In the case of `CCCN(CCC)C(=O)c1cccc(-c2ccc([N+](=O)[O-])c(NCc3ccccc3)c2)c1` [TRV 1130, 3′-(benzylamino)-4′-nitro-N,N-dipropylbiphenyl-3-carboxamide], the IC50 was more than 50 µM.
On the same count and under the same terms, the result for `CC(C)Nc1ccc(N2CCN(C(=O)c3ccccc3)CC2)cc1N1CCCC1` [TRV 1157, (4-(4-(isopropyl amino)-3-(pyrrolidin-1-yl)phenyl)piperazin-1-yl)(phenyl)methanone] reads more than 50 µM; that for `O=[N+]([O-])c1ccc(-c2cccc(C(O)(O)C(F)(F)F)c2)cc1NCc1ccccc1` [TRV 1153, 1-(3′-(benzylamino)-4′-nitro-[1,1′-biphenyl]-3-yl)-2,2,2-trifluoroethane-1,1-diol], 7.08 ± 0.19 µM.
Still for that read-out and setting: the result for `O=C(c1ccccc1)N1CCN(c2ccc(-n3cnnn3)c(NCc3ccccc3)c2)CC1` [TRV 1178, (4-(3-(benzylamino)-4-(1H-tetrazol-1-yl)phenyl)piperazin-1-yl)(phenyl)methanone] reads more than 50 µM; that for `CC(O)c1cccc(-c2ccc(C#N)c(N3CCCC3)c2)c1` (centres unmarked) [TRV 1248], approximately 50 µM.
Still for that read-out and setting: the result for `CC(C)Nc1cc(N2CCN(C(=O)c3ccccc3)CC2)ccc1F` [TRV 1160, (4-(4-fluoro-3-(isopropylamino)phenyl)piperazin-1-yl)(phenyl)methanone] reads more than 50 µM; that for `CC(=O)N1CCN(C(=O)c2cccc(-c3ccc([N+](=O)[O-])c(NCc4ccccc4)c3)c2)CC1` [TRV 1114, 1-(4-(3′-(benzylamino)-4′-nitrobiphenylcarbonyl)piperazin-1-yl)ethanone], more than 50 µM; that for `CC(C)Nc1cc(N2CCN(C(=O)c3ccccc3)CC2)cc(C(F)(F)F)c1` [TRV 1169, (4-(3-(isopropylamino)-5-(trifluoromethyl)phenyl)piperazin-1-yl)(phenyl)methanone], more than 50 µM.
Consider `O=C(c1ccccc1)N1CCN(c2ccc(OC(F)F)c(NCc3ccccc3)c2)CC1` [TRV 1184, (4-(3-(benzyl amino)-4-(difluoromethoxy)phenyl)piperazin-1-yl)(phenyl)methanone], for which the IC50 is more than 50 µM.
Still for that read-out and setting: the result for `CN(c1cc(N2CCN(C(=O)c3ccccc3)CC2)ccc1[N+](=O)[O-])C1CCC1` [TRV 1154, (4-(3-(cyclobutyl(methyl)amino)-4-nitrophenyl)piperazin-1-yl)(phenyl)methanone] reads 11.6 ± 1.24 µM.
Still for that read-out and setting: the result for `O=C(c1cccc(-c2ccc([N+](=O)[O-])c(NCc3ccccc3)c2)c1)N1CCOCC1` [TRV 1113, (3′-(benzyl amino)-4′-nitrobiphenyl-3-yl)(morpholino)methanone] reads more than 50 µM.
Still for that read-out and setting: the result for `O=C(c1ccccc1)N1CCN(c2ccc(Cl)c(Nc3ccccc3)c2)CC1` [TRV 1094, (4-(4-chloro-3-(phenylamino)phenyl)piperazin-1-yl)(phenyl)methanone] reads 31.6 ± 4.8 µM; that for `CN(C)C(=O)C1CCCN(c2ccc([N+](=O)[O-])c(NCc3ccccc3)c2)C1` (centres unmarked) [TRV 1132, 1-(3-(benzylamino)-4-nitrophenyl)-N,N-dimethylpiperidine-3-carboxamide], 11.5 ± 0.29 µM.
`CC(C)Nc1cc(N2CCN(C(=O)c3ccccc3)CC2)cc(F)c1C(F)(F)F` [TRV 1176, (4-(3-fluoro-5-(isopropylamino)-4-(trifluoromethyl)phenyl)piperazin-1-yl)(phenyl)methanone] registered an IC50 of more than 50 µM.
On the same count and under the same terms, the result for `N#Cc1ccc(-c2cccc(C(=O)O)c2)cc1NCc1ccccc1` [TRV 1128, 3′-(benzylamino)-4′-cyanobiphenyl-3-carboxylic acid] reads more than 50 µM.
On the same count and under the same terms, the result for `CN1CCN(c2cc(N3CCN(C(=O)c4ccccc4)CC3)ccc2[N+](=O)[O-])CC1` [TRV 1146, (4-(3-(4-methylpiperazin-1-yl)-4-nitrophenyl)piperazin-1-yl)(phenyl)methanone] reads more than 10 µM.
In turn, `O=[N+]([O-])c1ccc(-c2ccccc2-c2nnn[nH]2)cc1NCc1ccccc1` [TRV 1125, N-benzyl-4-nitro-2′-(1H-tetrazol-5-yl)-[1,1′-biphenyl]-3-amine] had an IC50 of 12.5 ± 2.79 µM.
Turning to `O=C(c1ccccc1)N1CCN(c2ccc(F)c(NCc3ccccc3)c2)CC1` [TRV 1159, (4-(3-(benzylamino)-4-fluorophenyl)piperazin-1-yl)(phenyl)methanone], the IC50 was more than 50 µM.
The same measure, in the same setting: the result for `CC(C)Nc1cc(F)cc(N2CCN(C(=O)c3ccccc3)CC2)c1` [TRV 1179, (4-(3-fluoro-5-(isopropylamino)phenyl)piperazin-1-yl)(phenyl)methanone] reads more than 50 µM.
The same measure, in the same setting: the result for `CC(O)c1cccc(-c2ccc(F)c(N3CCCC3)c2)c1` (centres unmarked) [TRV 1246] reads less than 50 µM; that for `O=C(c1ccccc1)N1CCN(c2ccc([N+](=O)[O-])c(N3CCCCC3)c2)CC1` [TRV 1137, (4-(4-nitro-3-(piperidin-1-yl)phenyl)piperazin-1-yl)(phenyl)methanone], approximately 10 µM.
On the same count and under the same terms, the result for `CCNC(=O)c1cccc(-c2ccc([N+](=O)[O-])c(NCc3ccccc3)c2)c1` [TRV 1116, 3′-(benzylamino)-N-ethyl-4′-nitrobiphenyl-3-carboxamide] reads more than 50 µM; that for `O=C(c1ccccc1)N1CCN(c2ccc(OC(F)(F)F)c(NCc3ccccc3)c2)CC1` [TRV 1185, (4-(3-(benzylamino)-4-(trifluoromethoxy)phenyl)piperazin-1-yl)(phenyl)methanone], more than 50 µM.
Take `O=C(c1ccccc1)N1CCN(c2ccc([N+](=O)[O-])c(N3CCC(N4CCCC4)CC3)c2)CC1` [TRV 1139, (4-(4-nitro-3-(4-(pyrrolidin-1-yl)piperidin-1-yl)phenyl)piperazin-1-yl)(phenyl)methanone]: the IC50 was approximately 10 µM.
As for `CN(C)C(=O)C1CCN(c2ccc([N+](=O)[O-])c(NCc3ccccc3)c2)CC1` [TRV 1134, 1-(3-(benzylamino)-4-nitrophenyl)-N,N-dimethylpiperidine-4-carboxamide], the IC50 is 10.7 ± 0.54 µM.
On the same count and under the same terms, the result for `CC(O)c1cccc(-c2ccc(OC(F)F)c(NCc3ccccc3)c2)c1` (centres unmarked) [TRV 1192, 1-(3′-(benzylamino)-4′-(difluoromethoxy)biphenyl-3-yl)ethanol] reads approximately 50 µM; that for `CC(C)Nc1cc(N2CCN(C(=O)c3ccccc3)CC2)ccc1C(F)(F)F` [TRV 1166, (4-(3-(isopropylamino)-4-(trifluoromethyl)phenyl)piperazin-1-yl)(phenyl)methanone], more than 50 µM; that for `CC(=O)c1cccc(-c2ccc([N+](=O)[O-])c(NCc3ccccc3)c2)c1` [TRV 1124, 1-(3′-(benzylamino)-4′-nitrobiphenyl-3-yl)ethanone], 6.49 ± 2.5 µM.
The same measure, in the same setting: the result for `O=C(O)c1cccc(-c2ccc(Cl)c(Nc3ccccc3)c2)c1` [TRV 1097, 4′-chloro-3′-(phenylamino)-[1,1′-biphenyl]-3-carboxylic acid] reads more than 50 µM.
On the same count and under the same terms, the result for `O=C(c1ccccc1)N1CCN(c2cc(F)c(F)c(N3CCCC3)c2)CC1` [TRV 1156, (4-(3,4-difluoro-5-(pyrrolidin-1-yl)phenyl)piperazin-1-yl)(phenyl)methanone] reads more than 50 µM; that for `CC(C)N(C)c1cc(N2CCN(C(=O)c3ccccc3)CC2)ccc1[N+](=O)[O-]` [TRV 1152, (4-(3-(isopropyl(methyl)amino)-4-nitrophenyl)piperazin-1-yl)(phenyl)methanone], 16.9 ± 0.52 µM; that for `CC(C)Nc1cc(N2CCN(C(=O)c3ccccc3)CC2)ccc1[N+](=O)[O-]` [TRV 1144, (4-(3-(isopropylamino)-4-nitrophenyl)piperazin-1-yl)(phenyl)methanone], more than 10 µM.
Take `CC1CN(c2ccc([N+](=O)[O-])c(Nc3ccccc3)c2)CCN1C(=O)c1ccccc1` (centres unmarked) [TRV 1099, (2-methyl-4-(4-nitro-3-(phenylamino)phenyl)piperazin-1-yl)(phenyl)methanone]: the IC50 was determined as 6.12 ± 2.78 µM.
Same read-out and setting: the result for `CN(Cc1ccccc1)C(=O)c1cccc(-c2ccc([N+](=O)[O-])c(NCc3ccccc3)c2)c1` [TRV 1118, N-benzyl-3′-(benzylamino)-N-methyl-4′-nitrobiphenyl-3-carboxamide] reads 6.47 ± 4.92 µM; that for `O=C(c1ccccc1)N1CCN(c2ccc(F)c(N3CCCC3)c2)CC1` [TRV 1162, (4-(4-fluoro-3-(pyrrolidin-1-yl)phenyl)piperazin-1-yl)(phenyl)methanone], more than 50 µM.
On the same count and under the same terms, the result for `O=C(c1ccccc1)N1CCN(c2ccc(-n3cnnn3)c(N3CCCC3)c2)CC1` [TRV 1164, phenyl(4-(3-(pyrrolidin-1-yl)-4-(1H-tetrazol-1-yl)phenyl)piperazin-1-yl)methanone] reads more than 50 µM.

The same assay, now with this note: 50 μM compound.
As for `CC(O)c1cccc(-c2ccc(C#N)c(N3CCCC3)c2)c1` (centres unmarked) [TRV 1248], testing at 50 µM gave an inhibition of 47.9%.
Same read-out and setting: the result for `CC(O)c1cccc(-c2ccc(F)c(N3CCCC3)c2)c1` (centres unmarked) [TRV 1246] reads 56.8%.
